Target: T1, Human glycogen phosphorylase a (Homo sapiens, UniProt P06737)
T1 sequence (P06737 1-847): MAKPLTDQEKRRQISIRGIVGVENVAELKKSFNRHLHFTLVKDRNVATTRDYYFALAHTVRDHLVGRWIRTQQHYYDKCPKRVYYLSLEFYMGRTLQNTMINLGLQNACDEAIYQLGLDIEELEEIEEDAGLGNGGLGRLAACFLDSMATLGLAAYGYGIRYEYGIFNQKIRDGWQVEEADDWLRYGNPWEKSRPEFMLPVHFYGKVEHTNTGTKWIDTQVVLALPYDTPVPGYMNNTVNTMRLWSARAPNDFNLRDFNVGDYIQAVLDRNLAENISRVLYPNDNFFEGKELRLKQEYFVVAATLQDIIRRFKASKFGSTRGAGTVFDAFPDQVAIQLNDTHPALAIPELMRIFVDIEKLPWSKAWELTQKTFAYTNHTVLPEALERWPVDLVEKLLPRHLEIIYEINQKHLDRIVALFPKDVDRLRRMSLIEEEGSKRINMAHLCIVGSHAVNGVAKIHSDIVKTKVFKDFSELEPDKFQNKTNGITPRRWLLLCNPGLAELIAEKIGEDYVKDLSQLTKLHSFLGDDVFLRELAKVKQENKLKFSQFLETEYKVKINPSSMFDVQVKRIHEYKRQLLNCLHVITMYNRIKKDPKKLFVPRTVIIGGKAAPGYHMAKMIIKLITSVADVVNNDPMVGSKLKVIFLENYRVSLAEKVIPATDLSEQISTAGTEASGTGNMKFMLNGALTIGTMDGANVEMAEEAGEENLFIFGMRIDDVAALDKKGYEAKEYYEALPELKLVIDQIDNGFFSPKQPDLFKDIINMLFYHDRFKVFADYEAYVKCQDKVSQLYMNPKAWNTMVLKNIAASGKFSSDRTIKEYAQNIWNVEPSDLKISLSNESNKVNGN
Test: Glycogen phosphorylase a activity test
Type: biochemical
Conditions: 10 μM concentration of the test substance; GPa measured in the reverse direction, in vitro
Method: Glycogen Phosphorylase a Activity Test
The effect of compounds on the activity of the active form of glycogen phosphorylase (GPa) was measured in the reverse direction by monitoring the synthesis of glycogen from glucose 1-phosphate by determining the release of inorganic phosphate. All the reactions were carried out as duplicate determinations in 96-well microtiter plates (Half Area Plates, Costar No. 3696), with the change in absorption due to the formation of the reaction product being measured, at the wavelength specified below, in a Multiscan Ascent Elisa Reader (Lab Systems, Finland). In order to measure the enzymic activity of GPa in the reverse direction, the conversion of glucose 1-phosphate into glycogen and inorganic phosphate was measured in accordance with the general method of Engers et al. (Engers HD, Shechosky S, Madsen NB, Can J Biochem 1970 July;48(7): 746–754) but with the following modifications: Human glycogen phosphorylase a (for example containing 0.76 mg of protein/ml (Aventis Pharma Deutschland GmbH), dissolved in buffer solution E (25 mM β-glycerophosphate, pH 7.0, 1 mM EDTA and 1 mM dithiothreitol), was diluted with buffer T (50 mM Hepes, pH 7.0, 100 mM KCl, 2.5 mM EDTA, 2.5 mM MgCl2.6H2O), and addition of 5 mg of glycogen/ml, to a concentration of 10 μg of protein/ml. Test substances were prepared as a 10 mM solution in DMSO and diluted down to 50 μM with buffer solution T. 10 μl of 37.5 mM glucose, dissolved in buffer solution T and 5 mg/ml of glycogen, and also 10 μl of a solution of human glycogen phosphorylase a (10 μg of protein/ml) and 20 μl of glucose 1-phosphate, 2.5 mM, were added to […] of the solution. The basal value of the activity of the glycogen phosphorylase a in the absence of test substance was determined by adding 10 μl of buffer solution T (0.1% DMSO). The mixture was incubated at room temperature for 40 minutes and the inorganic phosphate which was released was measured using the general method of Drueckes et al. (Drueckes P, Schinzel R, Palm D, Anal Biochem […] Sep. 1;230(10):173–177) but with the following modifications: 50 μl of a stop solution of 7.3 mM ammonium molybdate, 10.9 mM zinc acetate, 3.6% ascorbic acid, 0.9% SDS are added to 50 μl of the enzyme mixture. After 60 minutes of incubation at 45° C., the absorption was measured at 820 nm. In order to determine the background absorption, the stop solution was added immediately after adding the glucose 1-phosphate solution in a separate assay. This test was carried out using a 10 μM concentration of the test substance in order to determine the respective inhibition of glycogen phosphorylase a by the test substance in vitro.

Row | Compound | % inhibition at 10 μM | inhibition at 10 µM
1 | COc1ccc(C(=O)O)cc1NC(=O)NC(=O)c1ccc(C)cc1C [Example 14] | 57% | –
2 | COc1ccc(C(=O)O)cc1NC(=O)NC(=O)c1ccc(Cl)c(Cl)c1 [Example 10] | 41% | –
3 | CCCCOc1ccc(C(=O)O)cc1NC(=O)NC(=O)c1ccc(Cl)cc1Cl [Example 21] | 64% | –
4 | COc1ccc(C(=O)O)cc1NC(=O)NC(=O)c1cc(Cl)ccc1Cl [Example 9] | 81% | –
5 | O=C(NC(=O)c1ccccc1Cl)Nc1cc(C(=O)O)ccc1Cl [Example 11] | 49% | –
6 | O=C(NC(=O)c1ccc(Cl)cc1Cl)Nc1cc(C(=O)O)ccc1OCCO [Example 19] | 90% | –
7 | NC(CO)(CO)CO.O=C(NC(=O)c1ccc(Cl)cc1Cl)Nc1cc(C(=O)O)ccc1Oc1ccccc1 [Example 24] | 65% | –
8 | COc1ccc(C(=O)O)cc1NC(=O)NC(=O)c1ccccc1C [Example 8] | 77% | –
9 | O=C(NC(=O)c1ccc(Cl)cc1Cl)Nc1cc(C(=O)O)ccc1Oc1ccccc1 [Example 23] | 55% | –
10 | NC(CO)(CO)CO.O=C(NC(=O)c1cc(Cl)ccc1Cl)Nc1cc(C(=O)O)ccc1Cl [Example 7] | 54% | –
11 | COCCOc1ccc(C(=O)O)cc1NC(=O)NC(=O)c1ccc(Cl)cc1Cl [Example 22] | 72% | –
12 | COc1ccc(C(=O)O)cc1NC(=O)NC(=O)c1ccccc1Cl [Example 2] | 75% | –

Other lines, results leading:

Row | % inhibition at 10 μM | inhibition at 10 µM | Compound
13 | – | 95% | COc1ccc(C(=O)O)cc1NC(=O)NC(=O)c1ccc(Cl)cc1Cl [Example 1, 3-[3-(2,4-Dichlorobenzoyl)ureido]-4-methoxybenzoic acid]
14 | 48% | – | COc1ccc(C(=O)O)cc1NC(=O)NC(=O)c1ccc(Cl)cc1F [Example 16]
15 | 74% | – | O=C(NC(=O)c1ccc(Cl)cc1Cl)Nc1cc(C(=O)O)ccc1O [Example 3]
16 | 83% | – | O=C(NC(=O)c1ccc(Cl)cc1Cl)Nc1cc(C(=O)O)ccc1Cl [Example 12]
17 | 57% | – | O=C(NC(=O)c1cc(Cl)ccc1Cl)Nc1cc(C(=O)O)ccc1Cl [Example 6]
18 | 69% | – | COc1ccc(C(=O)O)cc1NC(=O)NC(=O)c1ccc(F)cc1F [Example 18]
19 | 75% | – | O=C(NC(=O)c1ccc(Cl)cc1Cl)Nc1cc(C(=O)O)ccc1F [Example 4]
20 | 49% | – | O=C(NC(=O)c1ccc(F)cc1Cl)Nc1cc(C(=O)O)ccc1C(F)(F)F [Example 25]
21 | 86% | – | CCOc1ccc(C(=O)O)cc1NC(=O)NC(=O)c1ccc(Cl)cc1Cl [Example 13]
22 | 52% | – | O=C(NC(=O)c1ccc(F)cc1F)Nc1cc(C(=O)O)ccc1Cl [Example 17]
23 | 44% | – | O=C(NC(=O)c1ccc(Cl)cc1Cl)Nc1cc(C(=O)O)ccc1C(F)(F)F [Example 26]
24 | 62% | – | CCCOc1ccc(C(=O)O)cc1NC(=O)NC(=O)c1ccc(Cl)cc1Cl [Example 20]
25 | 61% | – | O=C(NC(=O)c1ccc(Cl)cc1F)Nc1cc(C(=O)O)ccc1Cl [Example 15]

Reference: patent publication US7078404B2, “Acyl-3-carboxyphenylurea derivatives, processes for preparing them and their use” (Sanofi-Aventis Deutschland GmbH, priority 2002, dated 2006)
